{"source": "patent US20220304992A1", "about": "“METHODS OF REJUVENATING AGED TISSUE BY INHIBITING 15-HYDROXYPROSTAGLANDIN DEHYDROGENASE (15-PGDH)” (The Board of Trustees of the Leland Stanford Junior …, priority 2019, published 2022)", "key": {"[1]": {"test_system": "EP4 receptor on aged myofibers", "test": "SW treatment of aged EP4f/f mice with MCK-Cre ablation of EP4 in myofibers", "assay_type": "in vivo, mouse", "details": "loss of EP4 expression in myofibers, SW one month", "from_the_text": "We performed all experiments and protocols in compliance with the institutional guidelines of Stanford University and Administrative Panel on Laboratory Animal Care (APLAC). Middle aged (18-20 mo.) and aged (>24 mo.) mice C57BL/6 were obtained the US National Institute on Aging (NIA) for aged muscle studies, and young (2-4 mo.) wild-type C57BL/6 mice from Jackson Laboratory. INK-ATTAC mice were generated as previously described (1). INK-ATTAC healthspan assessments. INK-ATTAC mice were crossed onto the C57BL6/J genetic background and maintained in specific-pathogen free housing on a 12-hour dark/light cycle for study duration. At 12 months of age, male mice were either utilized for baseline healthspan assessments and terminal muscle harvest or randomized to receive twice-weekly vehicle or AP20187 (2 mg/kg intraperitoneal injection; B/B homodimerizer, Clontech) until assessment and sacrifice at 28 months of age (2). […] Time and distance to exhaustion was performed as previously described (4) for SW-treated mice and their controls. […]\nThe peak isometric torque (N·mm) of the ankle plantarflexors was assessed as previously described (21, 22). […]"}, "15-PGDH": {"molecular_target": "T1, 15-PGDH (Mus musculus, UniProt Q8VCC1)", "T1 construct": "15-PGDH specific enzymatic activity assayed in muscle tissues of vehicle and SW treated aged muscles; from tissue; host or cells: skeletal muscle lysates of aged C57BL/6 mice", "T1 sequence (Q8VCC1 whole entry)": "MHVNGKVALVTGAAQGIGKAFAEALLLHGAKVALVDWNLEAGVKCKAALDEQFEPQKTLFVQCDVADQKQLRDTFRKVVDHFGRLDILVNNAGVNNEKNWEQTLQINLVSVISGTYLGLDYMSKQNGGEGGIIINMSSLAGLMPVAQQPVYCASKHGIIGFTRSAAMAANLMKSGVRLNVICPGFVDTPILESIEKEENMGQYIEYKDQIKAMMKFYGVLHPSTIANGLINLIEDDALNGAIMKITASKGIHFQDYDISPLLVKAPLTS", "test": "15-PGDH kinetic assay (PicoProbe kit) in muscle lysates of treated mice", "assay_type": "in vivo", "details": "aged mice, daily i.p., 1 month", "quoted_text": "15-PGDH activity was analyzed in tissue lysates using the BioVision PicoProbe 15-PGDH Activity Assay Kit (Cat # K562) according to the protocol of the manufacturer. Briefly, tissues were isolated and snap frozen in liquid nitrogen."}, "pFOXO": {"test_system": "pFOXO", "test": "Immunoblots of muscle lysates from aged vehicle and SW treated mice", "assay_type": "in vivo, mouse", "details": "aged muscles, SW vs vehicle", "procedure": "Total lysates were prepared using lysis buffer (50 mM Tris-HCl pH 7.5, 150 mM NaCl, 4 mM CaCl, 1.5% Triton X-100, protease inhibitors and micrococcal nuclease). For tissue extracts, lysates were homogenized a FastPrep 24 homogenizer (MP Biomedicals) for 40 seconds at a speed of 6 m/s. We used the following antibodies: 15-PGDH (Santa Cruz Biotechnology, cat # sc-271418); phospho-AKT (Ser 473) (Cell Signaling cat #4060), AKT (Cell signaling cat #2920); phospho-FoxO1 (Thr24)/FoxO3a (Thr32) Antibody (Cell Signaling cat #9464T); Foxo3a (Cell Signaling cat #2497); phospho-CREB (Ser133) (Cell Signaling cat #9198S); phospho-S6 ribosomal protein (Ser235/236) (Cell Signaling cat#4858); SMC1 (Bethyl Laboratories cat# A300-055A-T). We used HRP conjugated secondary antibodies and developed by incubating the membranes with ECL Western Blotting Substrate (Nacalai USA) and imaging using the ChemiDoc Imaging System (BioRad)."}}}
{"smiles": "CCCC[S+]([O-])c1sc2nc(-c3cccs3)cc(-c3ccccc3)c2c1N", "note": "(stereo not shown) [SW033291, 2-(butylsulfinyl)-4-phenyl-6-(thiophen-2-yl)thieno[2,3-b]pyridin-3-amine]", "values": [{"measurement": "beneficial effect on muscle mass", "setting": "[1]", "result": "abrogated"}, {"measurement": "beneficial effect on muscle strength", "setting": "[1]", "result": "abrogated"}, {"measurement": "15-PGDH specific activity in muscle", "setting": "15-PGDH", "result": "significantly reduced"}, {"measurement": "pFOXO", "setting": "pFOXO", "result": "increased"}]}
